Here are results for three compounds from patent US20120219561A1, “Prophylaxis Against Cancer Metastasis” (Ingeneron, Inc., priority 2009, published 2012).

For one assay, the system named is 4T1 mammospheres. The experiment in a line: Transwell migration assay of 4T1 mammospheres. It counts as cell-based, murine. The conditions noted are these: recombinant SDF-1 in serum-free medium in lower chamber. The protocol:
FIG. 5 show the mediators for interaction between stem cells and cancer cells. (A) 4T1 cells and especially spheroid-forming 4T1 cells migrate toward the conditioned medium of mASC. 4T1 cells (3×10^4) were plated in the upper chamber of a 3 μm transwell system. The lower chamber was filled with 1 ml of 72 h conditioned medium of mASC. After 24 h of migration through the transwell membrane, cells were fixed and stained with calcein. The results are the mean and SD number of migrated cells per microscopic field under fluorescent microscope. (B) Data showing that mASC but not 4T1 cells produce SDF-1; 4T1 cells especially spheroid-forming 4T1 cells show higher messenger RNA levels of the specific receptor CXCR4. Secreted amounts of SDF-1a were measured by enzyme-linked immunosorbent assay and CXCR4 messenger RNA levels were determined by quantitative reverse transcription-polymerase chain reaction (RT-PCR). Reverse transcription-polymerase chain reaction results were normalized against GAPDH. (C) 4T1 cells and mammospheres migrate toward recombinant SDF-1 in a transwell system. Recombinant murine SDF-1 in serum-free medium was filled into the lower chamber in stated concentrations. CXCR4 inhibition was performed by 30 μg/ml neutralizing antibody 1 h before and during the migration assay. […]

The subject of another assay is CXCR4 receptor. To be noted: animal and human studies; cited from earlier work.
Assay [1] has as its system LCN2 expression in SKBr3 cells. The experiment in a line: Western blotting of LCN2 levels in SKBr3 cells incubated with pathway inhibitors. Format: cell-based, human. The protocol: FIG. 3 depicts experiments showing that LCN2 (NGAL) is a down-stream target of the HER2/PI-3K/AKT/NF-κB pathway. A. Western blotting of LCN2 levels in HER2^+SKBr3 cells treated with Herceptin. B. Western blotting of LCN2 levels in SKBr3 cells incubated with PI-3K inhibitor LY 294002. C. Western blotting of LCN2 levels in SKBr3 cells incubated with the NF-KB inhibitor Bay11-7082. D. Western blotting of LCN2 levels in SKBr3 cells transiently expressing active or dominant negative AKT.
In addition, overexpression of dominant negative AKT led to reduced expression of LCN2, while overexpression of dominant active AKT increased LCN2 levels ([…]). […] Iannetti A, et al. “The neutrophil gelatinase-associated lipocalin (NGAL), a NF-kappaB-regulated gene, is a survival factor for thyroid neoplastic cells” Proc Natl Acad Sci USA 105(37) (2008) 14058.
(In general: Immunoblotting shows a protein as a band on a membrane.)

As for “recombinant SDF-1: recombinant murine SDF-1 (CXCL12), ligand of CXCR4”, the “migration of 4T1 spheroid-forming cells” value with 4T1 mammospheres is “triggers migration”.
Consider `c1cc(CN2CCCNCCNCCCNCC2)ccc1CN1CCCNCCNCCCNCC1` [AMD3100], for which, in the assay with CXCR4 receptor, the “hematopoietic stem cell mobilization” value was “able to induce hematopoietic stem cell mobilization”.
For `Cc1ccc(S(=O)(=O)/C=C/C#N)cc1` [Bay11-7082], the LCN2 expression result in assay [1] is listed as “reduced in a dose-dependent manner”.
